Source: patent US20120071493A1, “SUBSTITUTED 8-SULFONYL-2,3,4,5-TETRAHYDRO-1H-GAMMA-CARBOLINES, LIGANDS AND PHARMACEUTICAL COMPOSITION; METHOD FOR THE PRODUCTION AND USE OF SAME” (priority 2009, published 2012)
Where a name gives a salt, the structure may show the parent alone.

Key:
[1] = test system: male mice of SHK line; assay: Novel Object Recognition test, Scopolamine-disturbed recognition; assay type: in vivo; conditions: Scopolamine 1 mg/kg
Protocol: The test was carried out in aged male mice of SHK line. Plexiglass plus maze, consisted of 4 dead-end chambers (numbered 1, 2, 3, 4), joined together through the fifth central chamber, was used in experiments. Mouse was placed into central chamber and allowed to explore the maze. Floor was cleaned after each animal. The sequence of chamber entries and duration of visits were registered by observer. Test was ended after 13 entries into dead-end chambers. Criterion for entry was location of all animal's paws inside the chamber at the same time.
During the training an animal was placed in the maze with one equiform bowl in each side chamber. In the course of testing (one hour after training) two opposite standing bowls were replaced by identical flasks, and animal was allowed to explore the maze. The time spent by animal in each side chamber was registered during the periods of training and testing. Index of novel object recognition was calculated as ratio of time spent by animal in side chambers with novel objects to the total time spent by it in all side chambers. In comparison with the training phase the appearance of novel object extends the time spent by animal in the chamber with novel object (so-called effect of novel object recognition). The recognition of novel objects was disturbed under action of Scopolamine administered in 1 mg/kg dose intraperitoneally 30 minutes before training, and recognition index was decreased.

[2] = target: T1, recombinant human 5-HT6 receptor (Homo sapiens, UniProt P50406); assay: Antagonistic activity towards serotonin 5-HT6 receptors, cAMP cell function experiment; assay type: cell-based; conditions: HEK 293 cells expressing recombinant human 5-HT6 receptor; cAMP response to 10 μM serotonin; read-out: IC50, ability to block serotonin 5-HT6 receptors in the setting of cell function experiments
T1 construct: host or cells: HEK 293 cells with tetracycline-induced T-Rex system (Invitrogen)
Protocol: Determination of antagonistic activity of substituted 8-sulfonyl-2,3,4,5-tetrahydro-1H-γ-carbolines of the general formula 1 towards serotonin 5-HT6 receptors. HEK 293 cells with tetracycline-induced T-Rex system (Invitrogen, USA) consistently expressing recombinant human 5-HT6 receptor, production of Etogen Scientific (USA), were used. The cells were grown in DMEM/10% FBS/1% AAS medium with Blasticidine S and Zeocin (both—Invitrogen, USA). According to the method worked up by the producer of T-Rex system tetracycline hydrochloride was added to the medium with the cells for the purpose of activation of 5-HT6 receptor expression. The cells were embedded in 96-well plates (30,000-40,000 cells per well) and incubated in 5%-CO2 incubator at 37° C. for 24 hs. Before experiments cells medium was replaced by Hank's balanced salt solution (HBSS), comprising 0.137 M NaCl, 5.4 mM KCl, 0.25 mM Na2HPO4, 0.44 mM KH2PO4, 1.3 mM CaCl2, 1.0 mM MgSO4, 5 mM HEPES (pH 7.4), 0.05% BSA and 1 mM IBMX. The tested compounds of general formula 1 were added to the cells in various concentrations. After incubation of the cells for 15 min at room temperature serotonin was added to them up to final concentration of 10 μM and incubation was continued for 30 min. The newly formed cAMP was determined by reagent kit LANCE cAMP Kit, according to the method described by the kit manufacturer […] (PerkinElmer, CIIIA). […] The data given testify that novel γ-carbolines of the general formula 1 are effective serotonin 5-HT6 receptor antagonists. Some of γ-carbolines of the general formula 1 have IC50<0.5 μM in the setting of cell function experiments (IC50—antagonist concentration blocking 5-HT6 receptors for 50%).

[3] = test system: male mice of BALB/c line; assay: Mice Behavior in the Elevated Plus Maze test; assay type: in vivo
Protocol: The experiments were carried out in aged male mice of BALB/c line weighing about 25 g. Animals were housed 5-7 per cage with water and food available. None of animals was acquainted with experimental set-up before. Each experimental group included 8 animals.
The procedure used was described earlier by Lister (Lister R. G. The use of a plus-maze to measure anxiety in the mouse. Psychopharmacology, 1987; 92:180-185). Plexiglass set-up consisted of two opened arms of 30×5 cm size and two closed arms of 30×5×15 cm size was used. Side arms were closed with transparent plexiglass and were connected with central zone via platform of 5×5 cm size. Opened arms, central platform and floor were made of black plexiglass. The set-up was mounted on a metallic base which was placed 38.5 cm above floor level.
Animals were injected intraperitoneally with placebo, Buspirone (5 mg/kg, 30 minutes before training), Lorazepam (0.05 mg/kg, 60 minutes before training) or with one of the compounds of the general formula 1, for example, compound 1.1.1(4).HCl or compound 1.2.1(3).HCl in doses 0.05 mg/kg and 0.2 mg/kg. Buspirone and Lorazepam were introduced in maximal effective dose, at which side sedative effect and general decrease of exploratory activity (number of arm entries during the test) were not observed yet.
Each mouse was placed in maze center with its head towards the opened arm. Over a period of 5 minutes the sequence and duration of arm entries were registered by means of computer program. Criterion for entry is location of all animal's paws inside the arm at the same time. Index of preference was calculated as ratio of the time spent by animal in opened arms as well as the number of entries into opened arms to the total time spent by it in opened and closed arms or, respectively, to the whole number of entries to arms of both types. The number of defecations left by mouse was regarded as additional parameter characterizing anxiety state.

T1 sequence (P50406 whole entry): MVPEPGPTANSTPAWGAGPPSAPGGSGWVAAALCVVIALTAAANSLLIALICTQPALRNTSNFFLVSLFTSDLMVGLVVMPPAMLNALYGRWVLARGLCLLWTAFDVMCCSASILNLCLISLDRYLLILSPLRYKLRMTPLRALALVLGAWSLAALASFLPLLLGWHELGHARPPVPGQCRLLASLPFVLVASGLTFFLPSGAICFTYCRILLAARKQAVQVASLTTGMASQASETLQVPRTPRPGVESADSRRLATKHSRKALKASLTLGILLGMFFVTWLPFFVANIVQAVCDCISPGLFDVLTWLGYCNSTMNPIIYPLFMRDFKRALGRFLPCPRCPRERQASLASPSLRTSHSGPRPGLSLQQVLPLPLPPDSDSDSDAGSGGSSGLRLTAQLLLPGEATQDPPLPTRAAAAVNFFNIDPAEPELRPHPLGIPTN

| SMILES | IC50 [2] [µM] | also measured |
| --- | --- | --- |
| Nc1c2c(nc3ccccc13)CCCC2 [Tacrine, reference compound] |  | prevention of Scopolamine influence on novel object recognition ([1]; 10 mg/kg intraperitoneally 30 minutes before training): could be prevented |
| CN1CCc2[nH]c3ccc(S(=O)(=O)N(C)C)cc3c2C1 [1.2(1), N,N,2-Trimethyl-2,3,4,5-tetrahydro-1H-γ-carboline-8-sulfonamide] | ~10 |  |
| Cc1ccc2c(c1)c1c(n2CCc2ccc(C)nc2)CCN(C)C1 [Dimebon, reference compound] |  | prevention of Scopolamine influence on novel object recognition ([1]; 0.1 mg/kg intraperitoneally 5 minutes before training): could be prevented |
| Cc1ccc(S(=O)(=O)n2c3c(c4cc(S(=O)(=O)c5ccccc5)ccc42)CN(C)CC3)cc1 [1.1(10)•HCl, 2-Methyl-5-(4-methylphenylsulfonyl)-8-(phenylsulfonyl)-2,3,4,5-tetrahydro-1H-γ-caboline hydrochloride] | ~10 |  |
| O=S(=O)(Nc1cccc(F)c1)c1ccc2[nH]c3c(c2c1)CN(Cc1ccccc1)CC3 [1.2(6)•HCl] | 0.022 |  |
| CN1CCc2[nH]c3ccc(S(=O)(=O)c4ccncc4)cc3c2C1 [1.1(2)•2HCl] | 6.9 |  |
| CN1CCc2c(c3cc(S(=O)(=O)c4ccccc4)ccc3n2CCc2ccccn2)C1 [1.1(16)•2HCl] | 0.615 |  |
| CN1CCc2[nH]c3ccc(S(=O)(=O)c4cccnc4)cc3c2C1 [1.1(1)•2HCl] | 0.085 |  |
| O=C1CC2(CCCC2)CC(=O)N1CCCCN1CCN(c2ncccn2)CC1 [Buspirone, reference compound] |  | anxiolytic effect in elevated plus maze ([3]; 5 mg/kg intraperitoneally, 30 minutes before training): well-marked anxiolytic effect |
| O=C1Nc2ccc(Cl)cc2C(c2ccccc2Cl)=NC1O (stereo not drawn) [Lorazepam, reference compound] |  | anxiolytic effect in elevated plus maze ([3]; 0.05 mg/kg intraperitoneally, 60 minutes before training): well-marked anxiolytic effect |
| CN1CCc2[nH]c3ccc(S(=O)(=O)c4cccc(F)c4)cc3c2C1 [1.1.1(3)•HCl] | 0.085 |  |
| CN1CCN(S(=O)(=O)c2ccc3[nH]c4c(c3c2)CN(C)CC4)CC1 [1.2(10)] | 62 |  |
